Earlier results, collected in US4134792A, “Specific binding assay with an enzyme modulator as a labeling substance” (Miles Laboratories, Inc., priority 1976, dated 1979).

Test system: glycogen synthetase
Design: key: inhibitory or negative effectors are indicated by (-); stimulatory or positive effectors are indicated by (+)
Conditions: yeast and lamb muscle; cited from earlier work

O=P(O)(O)OC[C@H]1OC(O)[C@H](O)[C@@H](O)[C@@H]1O (stereo partly shown) [glucose-6-phosphate]
allosteric effector: inhibitory (-) or stimulatory (+): +
